Measured values from US7166275B2, “Compositions containing phenethyl aryl esters as solubilizing agents for active organic compounds” (ISP Investments Inc., priority 2003, dated 2007).

Experiments:
[1] = Solubility of solid organic sunscreens (Escalol 517, Escalol 567) in various solvents; format: physicochemical; conditions: solutions prepared at 50° C., stood 1 week at 25° C., seeded
Protocol: A small seed crystal was added at 25° C. to hasten equilibration.

[2] = Solubility of active compounds in 2-phenylethyl benzoate, determined by GLC; format: physicochemical; conditions: for Solubility (soluble up to) in 2-phenylethyl benzoate: solvent 2-phenylethyl benzoate, 25° C.
Protocol: Predetermined weight/weight (w/w) solutions were prepared at 50° C. using a given solvent and Escalol® 517 or Escalol® 567. […] A small seed crystal was added at 25° C. to hasten equilibration. Solubility limits were determined by observation of the amount of solid present, and then more precisely by a GLC method (see Example 15).
5-Chloro-2-(2,4-dichlorophenoxy)phenol (Triclosan) has bacteriostatic properties and is used as a disinfectant and preservative in cosmetic and detergent preparations. It is soluble up to 69% w/w in 2-phenylethyl benzoate, as determined by GLC. Thus, 50% w/w and 60% w/w mixtures were homogeneous solutions at 25° C., but a 70% w/w solution prepared at 70° C. precipitated a small amount of solid when seeded at 25° C. and allowed to stand for 3 days.
An 80% w/w solution prepared from 8.002 g of Triclosan and 2.009 g of 2-phenylethyl benzoate precipitated a significant amount of solid at 25° C. A 23.3-mg sample of the supernatant was dissolved in 1.00 mL of chloroform and 1.00 μL was injected via automatic injector into a GLC instrument. The areas of the 2-phenylethyl benzoate and Triclosan peaks were 9381 and 12953, respectively. The mixture was heated at 70° C. until it was homogeneous, and an 18.2-mg sample was dissolved and injected in the same manner. […] (Note that the amount injected was 3.6 μg+14.6 μg=18.2 μg.) Therefore, under our GLC conditions the response factors were 1240 units/μg and 770 units/μg, respectively. Then, the respective amounts of each component in the supernatant were 9381/1240 =7.6 μg and 12953/770 =16.8 μg, which corresponds to 69% w/w Triclosan.

Row | SMILES | Solubility of Escalol 517 in the solvent ([1]; solute Escalol 517 (avobenzone)) | Solubility of Escalol 567 in the solvent ([1]; solute Escalol 567 (benzophenone-3)) | Solubility (soluble up to) in 2-phenylethyl benzoate/N-methylpyrrolidinone (1:1 w/w) ([2]; solvent 2-phenylethyl benzoate/N-methylpyrrolidinone (1:1 w/w)) | Solubility (soluble up to) in 2-phenylethyl benzoate [2]
1 | O=C(OCCc1ccccc1)c1ccccc1C(=O)OCCc1ccccc1 [Di-2-phenylethyl phthalate, di-2-phenylethyl phthalate] | 30 % w/w | 31 % w/w | – | –
2 | CCCN(CCC)c1c([N+](=O)[O-])cc(C(F)(F)F)c(N)c1[N+](=O)[O-] [Prodiamine, 5-Dipropylamino-α,α,α-trifluoro-4,6-dinitro-o-toluidine] | – | – | 24 % w/w | 5 % w/w
3 | Oc1cc(Cl)ccc1Oc1ccc(Cl)cc1Cl [Triclosan, 5-Chloro-2-(2,4-dichlorophenoxy)phenol] | – | – | – | 69 % w/w
